In assay [1] the target is T1, NOS3 (Homo sapiens, UniProt P29474).
T1 construct: endogenous, basal NOS3 activity was estimated at each of these sub-cellular locations in T-47D cells; endogenous in cells; host or cells: T-47D cells
The assay is described as follows: Steady state NOS3 activity imaging at plasma membrane and TGN with NOckout probes. It counts as cell-based. The following applies: T-47D cells.
Procedure: Image acquisition. T-47D cells were maintained as mentioned above in the cell culture section. Cells were washed twice with Hank's balanced salt solution (HBSS) before incubating them with 500 nM NOckout^TGN for 30 min or 500 nM NOckout^PM for 10 min at 37° C. followed by 3 washes with HBSS solution to remove any unloaded sensors. For steady state imaging (FIG. 1), cells were treated with indicated agonists or antagonists for 1 hr in complete RPMI-1640 medium. Care was taken not to exceed the final concentration of DMSO>1% at any time of the experiment. Additionally, 1% DMSO was used as a negative control in untreated (Basal) cells. […] The cells are then washed and imaged (FIG. 1f).
For simultaneous imaging cells were treated with 500 nM NOckout^TGN for 30 min where last 10 min cells were co-incubated with 500 nM NOckout^PM. In order to achieve lowest signal (PTIO, FIG. 1e-f) or to achieve bleaching profile (PTIO, FIG. 3e) cells were pre-treated with 500 μM PTIO for 15 minutes. Images were captured on a Laser scanning confocal Leica SP8 microscope using 63×, 1.4UV NA objective. Desired excitation and emission wavelengths was achieved using white light laser along with notch filters and acousto-optical tunable filters. A488, DAR and A647 were imaged using the following settings—Alexa488 (λex=488 nm, λem=500 nm to 540 nm), DAR (λex=554 nm, λem=565 nm to 610 nm) and Alexa647 (λex=647 nm, λem=665 nm to 710 nm).
Image analysis was performed using Fiji (Schindelin, J. et al. Fiji: an open-source platform for biological-image analysis. Nat Methods 9, 676-682 (2012)). Auto-fluorescence was subtracted from images for ratiometric analysis. For representation, images were further processed by smooth and despeckle functions. In order to present G/B or G/R images, a mask for each image was constructed using Otsu thresholding method, and mask-multiplied images were used for division. The ROI plugin in Fiji was used to select either TGN (Alexa647 channel) or PM (Alexa488 channel) and these ROIs were recalled in DAR channel to measure intensity in all three channels.
Next, endogenous, basal NOS3 activity was estimated at each of these sub-cellular locations in T-47D cells without explicitly activating NOS3. To do this, the ratiometric NOckout^PM response, i.e. the G/B ratio, was first measured under conditions where cells were depleted of NO using the NO scavenger 2-phenyl-4,4,5,5-tetramethylimidazoline-1-oxyl 3-oxide (PTIO, 300 μM) (Goldstein, S., Russo, A. & Samuni, A. Reactions of PTIO and carboxy-PTIO with *NO, *NO2, and O2−*. J Biol. Chem. 278, 50949-50955 (2003)). […] These two extreme cases provide the minimum and maximum G/B signals afforded by NOckout^PM in the cell (FIG. 1e-f). The G/B values under any subsequent condition are normalized to the maximum G/B signal. […]

In assay [2] the test system is S-nitrosylation at the Golgi. The assay is described as follows: Anti-S-nitrosocysteine immunostaining of T-47D cells. Format: cell-based. The protocol: (§1) Immunofluorescence staining. Cells were cultured on a glass bottom 3.5 cm imaging dish to reach 60% confluency. […] Treated cells were then washed three times with 1× PBS (pH 7.4) and fixed using, 4% paraformaldehyde at room temperature (RT, 15 min). Subsequently, cells were permeabilized using 0.25% triton X-100 followed by blocking using 3% BSA in 1× PBS. Cells were then incubated with indicated primary antibodies—mouse monoclonal anti-eNOS antibody (SantaCruz Cat #sc-376751), Polyclonal Anti-S-nitrosocysteine antibody (Abeam Cat #ab94930 or Abeam Cat #ab50185), Rabbit polyclonal Anti-Giantin antibody (Abeam Cat #ab24586) or Mouse monoclonal Anti-GM130 antibody (BD Biosciences Cat #610822) in blocking buffer (3% BSA in 1× 4 PBS) for 1 hour at RT. Cells were then washed for 5 min with 1× PBS (3×). Respective secondary antibodies conjugated with either Alexafluor 488 or Alexafluor 647 were added to the cells and incubated for 1 hr at RT. Cells were washed again to remove excess secondary antibody using 1× PBS for 5 min (3×). Hoechst 33342 (5 μM) was added 10 min prior to imaging to stain nuclear DNA. Cells were then imaged on a Leica SP8 laser scanning confocal microscope using excitation wavelengths 405 nm (Hoechst), 488 nm (AlexaFluor 488) and 647 nm (AlexaFluor 647). Images were processed using Fiji and maximum z-projection of 2-3 z-planes are used in representative images.
In order to address the significance of the […] population of NOS3 at the TGN, T-47D cells were immunostained using an antibody specific to S-nitrosocysteine.
Similar observations were made in MCF-7 cells upon NO depletion (FIG. 23). These studies reveal that the Golgi is a cellular hot-spot for 5-nitrosylation of proteins by NOS3, where it is essential for the maintenance of Golgi architecture in breast cancer cells. […] In addition to Golgi fragmentation, NO scavenging also hampered cell growth by inducing cell sensescence (FIG. 24).

The subject of assay [3] is T-47D cells. In words: Golgi fragmentation (Giantin/GM130 immunofluorescence). Format: cell-based. The protocol: as §1
Golgi fragmentation was quantified with immunofluorescence images of Golgi structural protein Giantin. Merge images of Hoechst and Giantin allowed identification of cell numbers and enumeration of Golgi fragments per cell (≤3 Golgi fragments per cell was considered intact Golgi) (Lee, J. E. et al. Dependence of Golgi apparatus integrity on nitric oxide in vascular cells: implications in pulmonary arterial hypertension. Am. J. Physiol. Heart Circ. Physiol. 300, H1141-58 (2011)). […]
Small molecule inhibitors were then screened to identify the molecular pathway by which NOS3 inhibition induces Golgi fragmentation. This is based on the rationale that inhibiting a protein on this pathway should also block methylene blue-induced Golgi fragmentation. […] A range of small molecule inhibitors against kinases that have previously ascribed roles in Golgi fragmentation were then used. DNA-PK with NU7441 was ruled out (Farber-Katz, S. E. et al. DNA damage triggers Golgi dispersal via DNA-PK and GOLPH3. Cell 156, 413-427 (2014)). Compounds containing an indirubin core have broad specificity for Cyclin dependent kinases (CDKs) and Src kinases. […] CDK1, CDK2 and CDK5 were ruled out, using (R)-Roscovitine (Rosco).

The target of assay [4] is T2, NOS2 (Mus musculus, UniProt P29477).
T2 construct: J774A.1 cells were treated with 1 μg/mL LPS for 12 h prior to the addition of NOckout; endogenous in cells; host or cells: J774A.1 macrophages primed with LPS
In words: In cellulo specificity of NOckout to NO in LPS primed J774A.1 cells. Format: cell-based. The following applies: LPS primed J774A.1 cells, 1400 W 10 μM.
Procedure: Pharmacological inhibition: Pharmacological inhibition of different enzymes were performed by employing known inhibitors. […] Cells were bathed in inhibitors 1 h prior to the addition of NOckout probes during the specificity experiment performed in J774A.1 cells.
In cellulo specificity of NOckout to NO: In cellulo specificity of the NOckout probe towards NO^− was validated in J774A.1 cells. […] J774A.1 cells were treated with 1 μg/mL LPS for 12 h prior to the addition of NOckout (500 nM in HBSS) either in the presence or in absence of specific inhibitors. LPS addition was employed to induce the expression of NOS2NOX and MPO. […] After 90 minutes of incubation with the NOckout culture media was removed from the cells and three washes were performed using HBSS to remove extracellular NOckout before proceeding to the fluorescence imaging. […]
The in-cell specificity of NOckout can be evaluated by measuring the contribution of the reactive species produced by NOX, MPO and NOS2 to the observed fold change in G/R ratio upon LPS stimulation. […] As NOS2 activity is not pan-endosomal, specificity is given by quantifying the percentage of endosomes that show G/R values higher than the mean G/R value in endosomes of unstimulated, NOS2 inhibited cells, as the latter corresponds to basal endosomal NO levels (FIG. 6c).

Assay [5] deals with TLR-9 and TLR-21. The assay is described as follows: Phagosomal NO in zebrafish microglia with NOckout^zCpG. Format: in vivo. An excerpt: Zebrafish brain was imaged in the optic tectum using an upright Zeiss LSM-710 confocal microscope equipped with water immersion objectives (20×, or 40×). Zebrafish larvae (3-4 dpf were mounted dorsally in a 1.5% low-melting point agar-bed on a confocal imaging dish (3.5 cm glass bottom). E3-containing 0.003% MS-222 was present in the imaging dish though out the imaging section. For NOckout injected samples, images were acquired simultaneously in GFP, DAR, and A647N channels using excitation wavelengths 488 nm, […] from Argon-ion (488 nm), Helium-Neon (543 nm & 632 nm) laser sources respectively. pHrodo was imaged using the same settings as that of DAR.
Image analysis: A MATLAB based program called Findosome was used to calculate the (G/R) values of individual endosomes from the acquired images. […] For each ROI, the program calculates fluorescence intensities both in the normalizing channel (A647, R) as well as in the DAR (G) channel. […] From the results, (G/R) value for individual endosomes can be calculated. Phagosomal (G/R) values from the zebrafish microglia are calculated using Fiji software. […] Fluorescence intensities in A647 and DAR channels were calculated. […] For (G/R) ratio quantification experiments, only those vesicles that are present in both green (G) and red (R) channels were considered. […]

`CC(=N)NCc1cccc(CN)c1` [1400 W]: the “G/B and G/R values of NOckout probes (NOS3 activity)” value in assay [1] is on record as “no effect”. For the same compound, the “S-nitrosylation at the Golgi” value in assay [2] was “no change”. In assay [3], the “Golgi fragmentation by treatment alone” value is “none of these treatments fragmented the Golgi”. Moreover, the “reduction of NOckout signal” value in assay [4] is reported as approximately 50%. Also, in assay [5], the “reduction of phagosomal G/R versus NOckout^zCpG” value is reported as approximately 50%.
